# ChEMBL document CHEMBL4334512, “Rationally Designed, Conformationally Constrained Inverse Agonists of RORγt-Identification of a Potent, Selective Series with Biologic-Like in Vivo Efficacy” (J Med Chem, 2019)
# Assays:
# [1] = biological target: T1, Oxysterols receptor LXR-alpha (Homo sapiens, UniProt Q13133); experiment: Activity at LXRalpha (unknown origin)
# T1 sequence (Q13133 whole entry): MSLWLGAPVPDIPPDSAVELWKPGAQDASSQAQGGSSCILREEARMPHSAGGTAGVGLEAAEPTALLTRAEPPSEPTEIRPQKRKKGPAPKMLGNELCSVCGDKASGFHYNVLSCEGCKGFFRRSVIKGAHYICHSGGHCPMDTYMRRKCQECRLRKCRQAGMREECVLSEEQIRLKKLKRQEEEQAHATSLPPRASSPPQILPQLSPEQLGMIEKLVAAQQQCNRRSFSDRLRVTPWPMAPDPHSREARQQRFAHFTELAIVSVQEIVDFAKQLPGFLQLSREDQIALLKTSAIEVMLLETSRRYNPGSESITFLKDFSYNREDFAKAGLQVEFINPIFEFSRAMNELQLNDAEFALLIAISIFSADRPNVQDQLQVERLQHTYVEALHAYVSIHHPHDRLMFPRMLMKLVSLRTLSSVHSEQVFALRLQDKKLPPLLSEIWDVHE
# [2] = biological target: T2, Nuclear receptor subfamily 1 group I member 2 (Homo sapiens, UniProt O75469); experiment: Activity at PXR (unknown origin)
# T2 sequence (O75469 whole entry): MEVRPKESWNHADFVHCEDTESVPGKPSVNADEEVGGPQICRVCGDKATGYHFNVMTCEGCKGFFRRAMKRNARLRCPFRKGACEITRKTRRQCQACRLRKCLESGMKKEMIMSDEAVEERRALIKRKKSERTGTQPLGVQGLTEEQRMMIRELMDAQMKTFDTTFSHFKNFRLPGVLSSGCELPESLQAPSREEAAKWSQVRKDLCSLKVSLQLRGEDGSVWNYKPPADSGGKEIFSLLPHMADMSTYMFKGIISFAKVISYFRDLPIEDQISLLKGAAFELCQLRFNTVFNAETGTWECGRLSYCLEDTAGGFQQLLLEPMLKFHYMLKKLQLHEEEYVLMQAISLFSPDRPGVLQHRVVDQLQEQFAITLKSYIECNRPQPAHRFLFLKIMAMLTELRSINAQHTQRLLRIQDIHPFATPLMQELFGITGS
# [3] = Half life in rat liver microsomes; format: ADME, Microsome
# [4] = biological target: T3, Oxysterols receptor LXR-beta (Homo sapiens, UniProt P55055); experiment: Activity at LXRbeta (unknown origin)
# T3 sequence (P55055 whole entry): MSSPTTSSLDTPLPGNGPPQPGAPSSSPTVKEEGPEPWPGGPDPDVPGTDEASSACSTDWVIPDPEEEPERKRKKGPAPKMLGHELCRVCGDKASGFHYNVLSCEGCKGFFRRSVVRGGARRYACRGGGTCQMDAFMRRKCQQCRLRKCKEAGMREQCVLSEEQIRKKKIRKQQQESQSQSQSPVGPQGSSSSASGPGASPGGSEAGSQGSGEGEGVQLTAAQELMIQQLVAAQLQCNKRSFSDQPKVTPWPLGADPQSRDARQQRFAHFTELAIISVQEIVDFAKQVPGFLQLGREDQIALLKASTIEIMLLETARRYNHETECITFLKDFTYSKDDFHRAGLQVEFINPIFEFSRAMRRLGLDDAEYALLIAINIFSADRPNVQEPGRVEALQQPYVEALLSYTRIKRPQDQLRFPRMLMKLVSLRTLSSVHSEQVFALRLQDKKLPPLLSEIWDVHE
# [5] = biological target: T4, Nuclear receptor ROR-beta (Homo sapiens, UniProt Q92753); experiment: Activity at RORbeta (unknown origin)
# T4 sequence (Q92753 whole entry): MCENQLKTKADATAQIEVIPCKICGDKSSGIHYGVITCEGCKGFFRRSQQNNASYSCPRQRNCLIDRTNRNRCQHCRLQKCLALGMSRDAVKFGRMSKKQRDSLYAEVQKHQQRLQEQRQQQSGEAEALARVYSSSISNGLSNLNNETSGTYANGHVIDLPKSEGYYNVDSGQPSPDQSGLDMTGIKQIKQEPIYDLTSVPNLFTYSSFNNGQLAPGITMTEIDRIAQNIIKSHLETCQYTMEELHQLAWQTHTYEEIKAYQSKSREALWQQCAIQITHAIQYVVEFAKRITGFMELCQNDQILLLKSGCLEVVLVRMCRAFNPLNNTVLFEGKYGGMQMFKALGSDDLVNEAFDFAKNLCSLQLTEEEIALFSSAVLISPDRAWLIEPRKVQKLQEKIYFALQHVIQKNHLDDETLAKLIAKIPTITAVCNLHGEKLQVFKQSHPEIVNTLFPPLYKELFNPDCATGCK
# [6] = Half life in mouse liver microsomes; format: ADME, Microsome
# [7] = Half life in human liver microsomes; format: ADME, Microsome
# [8] = biological target: T5, Nuclear receptor ROR-alpha (Homo sapiens, UniProt P35398); experiment: Activity at RORalpha (unknown origin)
# T5 sequence (P35398 whole entry): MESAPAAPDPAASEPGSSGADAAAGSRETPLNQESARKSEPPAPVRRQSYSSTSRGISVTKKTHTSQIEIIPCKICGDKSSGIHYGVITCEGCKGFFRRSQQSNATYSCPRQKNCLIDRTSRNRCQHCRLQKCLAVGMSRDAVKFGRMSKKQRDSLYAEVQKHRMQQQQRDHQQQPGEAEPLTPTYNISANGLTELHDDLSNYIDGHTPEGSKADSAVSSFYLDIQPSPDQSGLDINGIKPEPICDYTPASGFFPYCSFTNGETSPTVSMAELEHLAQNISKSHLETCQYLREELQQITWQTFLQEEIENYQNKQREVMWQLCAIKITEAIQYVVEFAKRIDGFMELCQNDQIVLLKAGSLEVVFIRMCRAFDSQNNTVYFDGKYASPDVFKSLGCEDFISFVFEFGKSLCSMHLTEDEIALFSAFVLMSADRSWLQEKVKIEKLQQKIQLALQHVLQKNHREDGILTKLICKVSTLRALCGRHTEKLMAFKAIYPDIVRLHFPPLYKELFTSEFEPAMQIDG
Structure (SMILES),IC50 [1] [µM],IC50 [2] [µM],half-life [3] [h],IC50 [4] [µM],IC50 [5] [µM],half-life [6] [h],half-life [7] [h],IC50 [8] [µM]
O=C(O)[C@H]1CC[C@H](C(=O)N2CC[C@@]3(S(=O)(=O)c4cccc(F)c4)c4ccc(C(F)(C(F)(F)F)C(F)(F)F)cc4CC[C@@H]23)CC1,> 10,> 40,> 2,> 10,> 10,1.65,1.83,> 10
C[C@]1(C(=O)N2CC[C@@]3(S(=O)(=O)c4ccc(F)cc4)c4ccc(C(F)(C(F)(F)F)C(F)(F)F)cc4CC[C@@H]23)CC[C@H](C(=O)O)CC1,> 10,> 40,1.78,> 10,> 10,1.4,1.82,> 10
O=C(O)[C@H]1CC[C@H](C(=O)N2CC[C@@]3(S(=O)(=O)c4cccc(Cl)c4)c4ccc(C(F)(C(F)(F)F)C(F)(F)F)cc4CC[C@@H]23)CC1,> 10,> 40,> 2,> 10,> 10,> 2,> 2,> 10
Cc1cccc(S(=O)(=O)[C@@]23CCN(C(=O)[C@H]4CC[C@H](C(=O)O)CC4)[C@@H]2CCc2cc(C(F)(C(F)(F)F)C(F)(F)F)ccc23)c1,> 10,> 40,0.417,> 10,> 10,> 2,> 2,> 10
O=C(C1CCS(=O)(=O)CC1)N1CC[C@@]2(S(=O)(=O)c3ccc(F)cc3)c3ccc(C(F)(C(F)(F)F)C(F)(F)F)cc3CC[C@@H]12,> 10,> 40,1.1,> 10,> 10,> 2,> 2,> 10
O=C(O)[C@H]1CC[C@H](C(=O)N2CC[C@@]3(S(=O)(=O)Cc4ccccc4)c4ccc(C(F)(C(F)(F)F)C(F)(F)F)cc4CC[C@@H]23)CC1,> 10,> 40,,> 10,> 10,,,> 10
CC(=O)N1CCC(C(=O)N2CC[C@@]3(S(=O)(=O)c4ccc(F)cc4)c4ccc(C(F)(C(F)(F)F)C(F)(F)F)cc4CC[C@@H]23)CC1,> 10,> 40,0.817,> 10,> 10,0.85,0.35,> 10
O=C(N1CC[C@@]2(S(=O)(=O)c3ccc(F)cc3)c3ccc(C(F)(C(F)(F)F)C(F)(F)F)cc3OC[C@@H]12)C1(O)CCS(=O)(=O)CC1,> 10,> 40,1.58,> 10,> 10,> 2,> 2,> 10
Cc1ccc(S(=O)(=O)[C@@]23CCN(C(=O)[C@H]4CC[C@H](C(=O)O)CC4)[C@@H]2CCc2cc(C(F)(C(F)(F)F)C(F)(F)F)ccc23)cc1,> 10,> 40,1.02,> 10,> 10,> 2,1.37,> 10
C[C@]1(C(=O)O)CC[C@H](C(=O)N2CC[C@@]3(S(=O)(=O)c4ccc(F)cc4)c4ccc(C(F)(C(F)(F)F)C(F)(F)F)cc4CC[C@@H]23)CC1,> 10,> 40,1.73,> 10,> 10,> 2,> 2,> 10
O=C(O)C12CC(C(=O)N3CC[C@@]4(S(=O)(=O)c5ccc(F)cc5)c5ccc(C(F)(C(F)(F)F)C(F)(F)F)cc5CC[C@@H]34)(C1)C2,> 10,> 40,,> 10,> 10,,,> 10
O=C(O)[C@H]1CC[C@@H](C(=O)N2CC[C@@]3(S(=O)(=O)c4ccc(F)cc4)c4ccc(C(F)(C(F)(F)F)C(F)(F)F)cc4CC[C@@H]23)CC1,> 10,> 40,,> 10,> 10,,,> 10
